The values that follow are results of earlier work, collected in patent US20240165107A1 (Cipla Limited, priority 2021, published 2024).

For data set [1], the system named is cholinergic muscarinic receptors.
For data set [2], the target named is T1, serotonin 5-HT2C receptors (Homo sapiens, UniProt P28335).
T1 sequence (P28335 33-458): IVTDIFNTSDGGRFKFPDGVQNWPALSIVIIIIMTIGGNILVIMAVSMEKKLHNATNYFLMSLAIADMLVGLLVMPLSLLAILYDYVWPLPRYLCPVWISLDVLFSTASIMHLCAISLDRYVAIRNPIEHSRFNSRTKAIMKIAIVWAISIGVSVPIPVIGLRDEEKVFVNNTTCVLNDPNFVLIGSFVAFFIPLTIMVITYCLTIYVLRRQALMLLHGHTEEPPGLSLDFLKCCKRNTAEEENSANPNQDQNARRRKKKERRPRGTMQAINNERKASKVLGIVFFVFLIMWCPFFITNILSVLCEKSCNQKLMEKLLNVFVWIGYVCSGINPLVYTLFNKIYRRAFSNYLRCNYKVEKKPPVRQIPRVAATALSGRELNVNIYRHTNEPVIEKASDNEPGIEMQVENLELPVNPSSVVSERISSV

Data set [3] has as its target 5-HT2A receptors (Homo sapiens, UniProt P28223). Conditions: antagonist.
Data set [4] addresses T2, alA- adrenergic receptors (Homo sapiens, UniProt P35348).
T2 sequence (P35348 1-466): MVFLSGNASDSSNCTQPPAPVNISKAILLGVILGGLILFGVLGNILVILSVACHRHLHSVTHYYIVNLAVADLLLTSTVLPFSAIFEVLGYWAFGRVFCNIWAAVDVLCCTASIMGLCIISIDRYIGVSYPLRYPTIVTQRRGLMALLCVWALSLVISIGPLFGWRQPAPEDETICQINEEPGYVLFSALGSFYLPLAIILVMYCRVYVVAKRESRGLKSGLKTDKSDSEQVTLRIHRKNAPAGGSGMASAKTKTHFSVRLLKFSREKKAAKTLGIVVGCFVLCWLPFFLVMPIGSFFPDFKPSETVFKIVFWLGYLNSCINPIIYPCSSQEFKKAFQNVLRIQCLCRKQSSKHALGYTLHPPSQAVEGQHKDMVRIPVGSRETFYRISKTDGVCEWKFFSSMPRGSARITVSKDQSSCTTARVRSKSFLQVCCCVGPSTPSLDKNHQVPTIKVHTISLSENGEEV

In data set [5] the target is 5-HT2B receptors (Homo sapiens, UniProt P41595). Particulars: antagonist.
The conditions of data set [6]: dogs; immediate release cariprazine capsules.
For data set [7] the following is noted: rats; immediate release cariprazine capsules.

SMILES strings stand for the structures. Like-named read-outs stand apart in the source and are kept apart here.

5-HT2A receptors, sequence (P28223 whole entry): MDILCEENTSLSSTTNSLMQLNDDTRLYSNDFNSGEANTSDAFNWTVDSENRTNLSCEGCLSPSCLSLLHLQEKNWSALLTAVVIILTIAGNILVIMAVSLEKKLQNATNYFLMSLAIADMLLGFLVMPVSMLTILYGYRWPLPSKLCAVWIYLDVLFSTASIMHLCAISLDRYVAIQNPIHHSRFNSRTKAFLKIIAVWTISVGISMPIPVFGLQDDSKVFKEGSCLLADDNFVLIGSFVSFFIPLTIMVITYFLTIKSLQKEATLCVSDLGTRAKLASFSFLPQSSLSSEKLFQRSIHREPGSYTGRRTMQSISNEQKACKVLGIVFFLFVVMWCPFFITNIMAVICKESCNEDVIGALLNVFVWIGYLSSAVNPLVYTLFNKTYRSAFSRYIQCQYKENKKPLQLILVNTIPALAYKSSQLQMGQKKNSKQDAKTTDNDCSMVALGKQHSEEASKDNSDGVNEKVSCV
5-HT2B receptors, sequence (P41595 whole entry): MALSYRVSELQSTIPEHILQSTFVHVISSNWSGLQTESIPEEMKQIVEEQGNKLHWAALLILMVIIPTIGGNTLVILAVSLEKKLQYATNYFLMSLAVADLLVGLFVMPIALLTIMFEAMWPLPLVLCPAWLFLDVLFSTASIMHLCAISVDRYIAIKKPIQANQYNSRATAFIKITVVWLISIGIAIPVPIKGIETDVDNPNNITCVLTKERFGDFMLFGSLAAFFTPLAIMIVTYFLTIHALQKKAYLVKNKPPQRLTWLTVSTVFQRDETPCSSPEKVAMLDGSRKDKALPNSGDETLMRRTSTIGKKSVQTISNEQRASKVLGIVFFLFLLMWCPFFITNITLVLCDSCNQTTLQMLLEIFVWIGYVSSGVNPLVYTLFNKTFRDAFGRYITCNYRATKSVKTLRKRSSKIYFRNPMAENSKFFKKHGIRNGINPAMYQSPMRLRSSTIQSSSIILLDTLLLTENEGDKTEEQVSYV

As to `CN(C)C(=O)N[C@H]1CC[C@H](CCN2CCN(c3cccc(Cl)c3Cl)CC2)CC1` [Cariprazine, trans-N-{4-[2-[4-(2,3-dichlorophenyl)piperazine-1-yl]ethyl]cyclohexyl}-N′,N′-dimethylurea], in data set [1], the affinity entry is reported as “no appreciable affinity”. Besides, the binding affinity entry is “lower binding affinity” in data set [2], “moderate” in data set [3], “lower binding affinity” in data set [4] and “high” in data set [5]. Besides, the oral absolute bioavailability in data set [6] was 64-80%; in data set [7], 52-63%.
